Results: patent US20250041282A1, “METHOD FOR TREATING INFLAMMATORY PULMONARY DISEASE” (FU JEN CATHOLIC UNIVERSITY, priority 2021, published 2025)

How the values were obtained:
RAW264.7 macrophages [1] = assay: Western blotting of LPS-stimulated macrophage lysates; format: cell-based, mouse; conditions: LPS-induced RAW264.7; FIG. 6D
Source text: In brief, cell lysate was separated by 10% SDS-PAGE and transferred to a PVDF membrane (Hybond™-P, Amersham, Piscataway, NJ, USA). The blots were probed with anti-p38 (Catalogue Number: 8690P), anti-p-p38 (Thr180/Tyr182; Catalogue Number: 4511P), anti-ERK44/42 (Catalogue Number: 4695P), anti-p-ERK44/42 (Thr202/Tyr204; Catalogue Number: 4370P), anti-JNK (Catalogue Number: 9258P), anti-p-JNK (Thr183/Tyr185; Catalogue Number: 4668P), anti-p65 (Catalogue Number: 8242S), anti-STAT3 (Catalogue Number: 12640S), anti-p-STAT3 (Tyr705; Catalogue Number: 9145S) and anti-RANTES (Catalogue Number: 2989S) antibodies were provided by Cell Signaling Technology, Inc. (Danvers, MA, USA). Anti-Lamin A/C (Catalogue Number: 101127) antibodies were obtained from GeneTex, Inc. (San Antonio, TX, USA). Anti-β-Actin (Catalogue Number: SC-47778) and anti-COX2 (Catalogue Number: SC-1746) antibody was obtained from Santa Cruz Biotechnology, Inc. (Dallas, Texas, USA). The anti-iNOS (Catalog Number: 610329) antibody was obtained from BD transduction Lab. (San Jose, CA, USA). Bound antibodies were visualized by […] staining (Western Lighting Plus ECL; PerkinElmer, Wellesley, MA, USA) with autoradiography using FUJI Medical X-ray film (Fuji Corporation, Kofu, Yamanashi, Japan) or a MultiGel-21 multifunctional imaging system (TOPBIO, New Taipei, Taiwan). The intensity of the western blot bands was quantified by ImageJ software. The quantitative immunoblot data were normalized to the internal control protein and are expressed as the relative ratio of the treatment group to the control. The data represent the mean±S.D. of at least three independent experiments.

RAW264.7 macrophages [2] = assay: ELISA of cytokines in cell culture media; format: cell-based, mouse; conditions: pretreated 30 min, 100 ng/ml LPS 24 h; FIG. 5A/5B
Procedure: RANTES (RayBiotech), IL-1β and IL-6 (eBioscience, San Diego, CA, USA) concentrations in cell culture media and mouse serum were measured using ELISA kits according to the manufacturer's instructions. The plates were measured at […] using an Epoch microplate spectrophotometer (BioTek Instruments, Winooski, VT, USA). The concentrations of RANTES, IL-1β and IL-6 in the samples were determined by standard curves.
For identifying the potential signaling pathways which regulate the secretion of IL-6 and RANTES induced by LPS stimulation, RAW264.7 macrophages were pretreated with various kinase inhibitors for 30 min and then stimulated with/without 100 ng/ml LPS for 24 h; the cell culture media was harvested for ELISA assay. […] (FIG. 6A). To investigate whether FJU-C28 could mediate the transcriptional activity of NF-κB (p65), the translocation of NF-κB p65 was examined in LPS-stimulated macrophages.

Row | SMILES | LPS-induced phosphorylation of STAT3 (RAW264.7 macrophages [1]) | LPS-induced expression of IL-6 (ELISA), kinase inhibitors (RAW264.7 macrophages [2]) | LPS-induced expression of RANTES (ELISA), kinase inhibitors (RAW264.7 macrophages [2])
1 | C[S+]([O-])c1ccc(-c2nc(-c3ccncc3)c(-c3ccc(F)cc3)[nH]2)cc1 (stereo not drawn) [SB203580] | inhibited | suppressed | suppressed
2 | CCOC(=O)C1=CCCC[C@H]1S(=O)(=O)Nc1ccc(F)cc1Cl [CLI-095] | – | suppressed | suppressed
3 | COc1cccc(-c2cc(=O)c3ccccc3o2)c1N [PD98059] | slightly suppressed | not | –
4 | Cc1ccc(S(=O)(=O)/C=C/C#N)cc1 [BAY11-7082] | – | suppressed | suppressed
